Assay results: patent US20250382277A1, “SMALL MOLECULE INHIBITORS OF DYRK/CLK AND USES THEREOF” (Arizona Board of Regents on Behalf of the University of …, priority 2022, published 2025)
Counter-ions that a name gives are not always drawn.

Legend:
[1] = target: T1, DYRK1A (Homo sapiens, UniProt Q13627); assay: KdELECT Kinase Assay Panel (Eurofins) binding affinity; settings: read-out: DYRK1A Kd, duplicate 11-point dose-response curves
Protocol: (§1) KDs were obtained from Eurofins. The KdELECT Kinase Assay Panel enables quantitated compound binding affinity against any kinase assay. Inhibitor binding constants (Kd values) are calculated from duplicate 11-point dose-response curves. Measurements are made under optimized conditions that generate true thermodynamic Kd values which facilitate direct comparison of inhibitor affinity across kinases.

[2] = tested on: WNT signaling; assay: WNT reporter assay (TopGFP reporter); assay type: cell-based; settings: Human Colonic Epithelial Cells (HCEC) with TopGFP reporter, stimulated with 10 μM CHIR99021, 24 hours
Text: KDs were obtained from Eurofins.

[3] = target: T1, DYRK1A; assay: biochemical
Protocol: as §1

Molecule | Kd [1] [nM] | EC50 [2] [nM] | Kd [3] [nM]
1-(5-(4-(6-(2-aminopyridin-4-yl)quinazolin-4-yl)-2-fluorophenyl)hexahydropyrrolo[3,4-c]pyrrol-2(1H)-yl)ethan-1-one [Compound 46] | < 100 | – | –
CC(=O)N1CCN(c2ccc(-c3ncnc4ccc(-c5ccnc(N)c5)cc34)cc2)CC1 [Compound 22, 1-(4-(4-(6-(2-aminopyridin-4-yl)quinazolin-4-yl)phenyl)piperazin-1-yl)ethan-1-one] | – | < 100 | < 100
Nc1cc(-c2ccc3ncnc(-c4cnc(N5CCC6(CCOC6)CC5)c(F)c4)c3c2)ccn1 [Compound 23, 4-(4-(5-fluoro-6-(2-oxa-8-azaspiro[4.5]decan-8-yl)pyridin-3-yl)quinazolin-6-yl)pyridin-2-amine hydrochloride] | – | 100 to 1000 | < 100
Nc1cc(-c2ccc3ncnc(-c4cnc(N5CCNCC5)c(F)c4)c3c2)ccn1 [Compound 24, 4-(4-(5-fluoro-6-(piperazin-1-yl)pyridin-3-yl)quinazolin-6-yl)pyridin-2-amine hydrochloride] | – | > 1000 | < 100
CN1CCN(c2ccc(-c3ncnc4ccc(-c5ccnc(N)c5)cc34)cc2F)CC1 [Compound 25, 4-(4-(3-fluoro-4-(4-methylpiperazin-1-yl)phenyl)quinazolin-6-yl)pyridin-2-amine] | – | < 100 | < 100
CN1CCN(c2ncc(-c3ncnc4ccc(-c5c[nH]c6ncccc56)cc34)cc2F)CC1 [Compound 26, 4-(5-fluoro-6-(4-methylpiperazin-1-yl)pyridin-3-yl)-6-(1H-pyrrolo[2,3-b]pyridin-3-yl)quinazoline] | – | 100 to 1000 | < 100
Fc1cc(-c2ncnc3ccc(-c4c[nH]c5ncccc45)cc23)cnc1N1CCNCC1 [Compound 27, 4-(5-fluoro-6-(piperazin-1-yl)pyridin-3-yl)-6-(1H-pyrrolo[2,3-b]pyridin-3-yl)quinazoline] | – | 100 to 1000 | < 100
Nc1cc(-c2ccc3ncnc(-c4ccc(N5CC6(COC6)C5)c(F)c4)c3c2)ccn1 [Compound 28, 4-(4-(3-fluoro-4-(2-oxa-6-azaspiro[3.3]heptan-6-yl)phenyl)quinazolin-6-yl)pyridin-2-amine] | – | 100 to 1000 | < 100
Nc1cc(-c2ccc3ncnc(-c4ccc(N5C[C@@H]6C[C@H]5CO6)c(F)c4)c3c2)ccn1 [Compound 29, 4-(4-(4-((1S,4S)-2-oxa-5-azabicyclo[2.2.1]heptan-5-yl)-3-fluorophenyl)quinazolin-6-yl)pyridin-2-amine] | – | 100 to 1000 | < 100
Nc1cc(-c2ccc3ncnc(-c4cnc(N5CCC6(CCNC6=O)CC5)c(F)c4)c3c2)ccn1 [Compound 30, 8-(5-(6-(2-aminopyridin-4-yl)quinazolin-4-yl)-3-fluoropyridin-2-yl)-2,8-diazaspiro[4.5]decan-1-one] | – | 100 to 1000 | < 100
CN1CCN(c2c(F)cc(-c3ncnc4ccc(-c5ccnc(N)c5)cc34)cc2F)CC1 [Compound 31, 4-(4-(3,5-difluoro-4-(4-methylpiperazin-1-yl)phenyl)quinazolin-6-yl)pyridin-2-amine] | – | 100 to 1000 | < 100
Nc1cc(-c2ccc3nccc(-c4ccc(N5CCOCC5)c(F)c4)c3c2)ccn1 [Compound 32, 4-(4-(3-fluoro-4-morpholinophenyl)quinolin-6-yl)pyridin-2-amine] | – | 100 to 1000 | < 100
Fc1cc(-c2ncnc3ccc(-c4c[nH]c5ncccc45)cc23)ccc1N1CCNCC1 [Compound 33, 4-(3-fluoro-4-(piperazin-1-yl)phenyl)-6-(1H-pyrrolo[2,3-b]pyridin-3-yl)quinazoline] | – | 100 to 1000 | < 100
CC(=O)N1CCN(c2ccc(-c3ncnc4ccc(-c5ccnc(N)c5)cc34)cc2F)CC1 [Compound 34, 1-(4-(4-(6-(2-aminopyridin-4-yl)quinazolin-4-yl)-2-fluorophenyl)piperazin-1-yl)ethan-1-one] | – | 100 to 1000 | < 100
Nc1cc(-c2ccc3ncnc(-c4ccc(N5CCNCC5)c(F)c4)c3c2)ccn1 [Compound 35, 4-(4-(3-fluoro-4-(piperazin-1-yl)phenyl)quinazolin-6-yl)pyridin-2-amine] | – | 100 to 1000 | < 100
CCN1CCN(c2ccc(-c3ncnc4ccc(-c5ccnc(N)c5)cc34)cc2F)CC1 [Compound 36, 4-(4-(4-(4-ethylpiperazin-1-yl)-3-fluorophenyl)quinazolin-6-yl)pyridin-2-amine] | – | 100 to 1000 | < 100
CC(=O)N1CCN(c2ccc(-c3ccnc4ccc(-c5ccnc(N)c5)cc34)cc2)CC1 [Compound 38, 1-(4-(4-(6-(2-aminopyridin-4-yl)quinolin-4-yl)phenyl)piperazin-1-yl)ethan-1-one] | – | < 100 | < 100

Molecule | Kd [1] [nM] | EC50 [2] [nM] | Kd [3] [nM]
CC(=O)N1C[C@@H]2C[C@H]1CN2c1ccc(-c2ncnc3ccc(-c4ccnc(N)c4)cc23)cc1 [Compound 39, 1-((1S,4S)-5-(4-(6-(2-aminopyridin-4-yl)quinazolin-4-yl)phenyl)-2,5-diazabicyclo[2.2.1]heptan-2-yl)ethan-1-one] | – | 100 to 1000 | < 100
CC(=O)N1C[C@@H]2C[C@H]1CN2c1ccc(-c2ncnc3ccc(-c4ccnc(N)c4)cc23)cc1F [Compound 40, 1-((1S,4S)-5-(4-(6-(2-aminopyridin-4-yl)quinazolin-4-yl)-2-fluorophenyl)-2,5-diazabicyclo[2.2.1]heptan-2-yl)ethan-1-one] | – | 100 to 1000 | < 100
Nc1cc(-c2ccc3ncnc(-c4ccc(N5CCN(CCO)CC5)cc4)c3c2)ccn1 [Compound 41, 2-(4-(4-(6-(2-aminopyridin-4-yl)quinazolin-4-yl)phenyl)piperazin-1-yl)ethan-1-ol] | – | < 100 | < 100
Nc1cc(-c2ccc3ncnc(-c4ccc(N5CCN(C6COC6)CC5)cc4)c3c2)ccn1 [Compound 42, 4-(4-(4-(4-(oxetan-3-yl)piperazin-1-yl)phenyl)quinazolin-6-yl)pyridin-2-amine] | – | < 100 | < 100
CN1[C@@H]2CC[C@H]1CN(c1ccc(-c3ncnc4ccc(-c5ccnc(N)c5)cc34)cc1F)C2 [Compound 43, 4-(4-(3-fluoro-4-((1R,5S)-8-methyl-3,8-diazabicyclo[3.2.1]octan-3-yl)phenyl)quinazolin-6-yl)pyridin-2-amine] | – | 100 to 1000 | < 100
CC(=O)N1CC2(C1)CN(c1ccc(-c3ncnc4ccc(-c5ccnc(N)c5)cc34)cc1)C2 [Compound 44, 41-(6-(4-(6-(2-aminopyridin-4-yl)quinazolin-4-yl)phenyl)-2,6-diazaspiro[3.3]heptan-2-yl)ethan-1-one] | – | 100 to 1000 | < 100
CC(C)(C)N1CCN(c2ccc(-c3ncnc4ccc(-c5ccnc(N)c5)cc34)cc2F)CC1 [Compound 45, 4-(4-(4-(4-(tert-butyl)piperazin-1-yl)-3-fluorophenyl)quinazolin-6-yl)pyridin-2-amine] | – | 100 to 1000 | < 100
CS(=O)(=O)N1CCN(c2ccc(-c3ncnc4ccc(-c5ccnc(N)c5)cc34)cc2F)CC1 [Compound 47, 4-(4-(3-fluoro-4-(4-(methylsulfonyl)piperazin-1-yl)phenyl)quinazolin-6-yl)pyridin-2-amine] | – | < 100 | < 100
CC(C)CN1CCN(c2ccc(-c3ncnc4ccc(-c5ccnc(N)c5)cc34)cc2F)CC1 [Compound 48, 4-(4-(3-fluoro-4-(4-isobutylpiperazin-1-yl)phenyl)quinazolin-6-yl)pyridin-2-amine] | – | < 100 | < 100
CN(C)C(=O)N1CCN(c2ccc(-c3ncnc4ccc(-c5ccnc(N)c5)cc34)cc2F)CC1 [Compound 49, 4-(4-(6-(2-aminopyridin-4-yl)quinazolin-4-yl)-2-fluorophenyl)-N,N-dimethylpiperazine-1-carboxamide] | – | < 100 | < 100
CC(C)N1CCN(c2ccc(-c3ncnc4ccc(-c5ccnc(N)c5)cc34)cc2F)CC1 [Compound 50, 4-(4-(3-fluoro-4-(4-isopropylpiperazin-1-yl)phenyl)quinazolin-6-yl)pyridin-2-amine] | – | 100 to 1000 | < 100
[2H]C([2H])([2H])N1CCN(c2ccc(-c3ncnc4ccc(-c5ccnc(N)c5)cc34)cc2F)CC1 [Compound 51, 4-(4-(3-fluoro-4-(4-(methyl-d3)piperazin-1-yl)phenyl)quinazolin-6-yl)pyridin-2-amine] | – | < 100 | < 100
COC(=O)N1CCN(c2ccc(-c3ncnc4ccc(-c5ccnc(N)c5)cc34)cc2F)CC1 [Compound 52, methyl 4-(4-(6-(2-aminopyridin-4-yl)quinazolin-4-yl)-2-fluorophenyl)piperazine-1-carboxylate] | – | < 100 | < 100
Nc1cc(-c2ccc3ncnc(-c4ccc(N5CCN(C(=O)C6CC6)CC5)c(F)c4)c3c2)ccn1 [Compound 53, (4-(4-(6-(2-aminopyridin-4-yl)quinazolin-4-yl)-2-fluorophenyl)piperazin-1-yl)(cyclopropyl)methanone] | – | < 100 | < 100
COCCN1CCN(c2ccc(-c3ncnc4ccc(-c5ccnc(N)c5)cc34)cc2F)CC1 [Compound 54, 4-(4-(3-fluoro-4-(4-(2-methoxyethyl)piperazin-1-yl)phenyl)quinazolin-6-yl)pyridin-2-amine] | – | < 100 | < 100
Nc1cc(-c2ccc3ncnc(-c4ccc(N5CCN(C6CCOCC6)CC5)c(F)c4)c3c2)ccn1 [Compound 55, 4-(4-(3-fluoro-4-(4-(tetrahydro-2H-pyran-4-yl)piperazin-1-yl)phenyl)quinazolin-6-yl)pyridin-2-amine] | – | < 100 | < 100
Nc1cc(-c2ccc3ncnc(-c4ccc(N5CCN(C6COC6)CC5)c(F)c4)c3c2)ccn1 [Compound 56, 4-(4-(3-fluoro-4-(4-(oxetan-3-yl)piperazin-1-yl)phenyl)quinazolin-6-yl)pyridin-2-amine] | – | < 100 | < 100
